Measured values reported in paper PMC9360399, “Alterations to the broad-spectrum formin inhibitor SMIFH2 modulate potency but not specificity” (Scientific Reports, 2022).
“Also recorded” adds a separate entry of the source.

Columns and labels:
[1] = molecular target: DIAPH1 (Homo sapiens, UniProt O60610); assay: pyrene-actin polymerization assay, DIAPH1-FFC; type: biochemical
Experimental: (§1) Several SMIFH2 analogs are known to retain or lose inhibitory activity against mDia1[18]. We sought to expand this dataset to more extensively characterize structure–activity relationships in the SMIFH2/formin complex. All 17 analogs shown in Fig. 4 were synthesized according to the scheme described in the Experimental Procedures (Fig. 6) and characterized by proton NMR (Fig. S8). Each inhibitor was tested for potential interaction with actin in the absence of formin (Figs. S3, S4). […] This panel of 18 inhibitors was tested against five formin FFC fragments (DIAPH1, DIAPH2, INF2, FMNL3, and FMN2), and the IC50 values were measured (Fig. 4 and Table 1). One notable trend in this dataset is that the lack of specificity, noted above for SMIFH2 (Fig. 3), holds for its analogs: no modifications made to SMIFH2 led to a selective inhibitor, at least among the five formins that were tested.
(§2) Figure 4 Structure activity data for SMIFH2 and 17 analogs tested against five human formins. Each individual data point indicates an IC50 value from a titration of inhibitor in the pyrene-actin assembly assay. Conditions: 2 µM actin (5% pyrene-labeled), 4 µM S. pombe profilin, formin (5 nM DIAPH1-FFC, 5 nM DIAPH2-FFC, 5 nM INF2-FFC, 20–37.5 nM FMN2-FFC, 20 nM FMNL3-FFC), inhibitor with a fixed volume of DMSO. […] Because we cannot reliably measure IC50 values above 40 µM, those points are indicated at the > 40 µM line.
(§3) Assays were carried out as described. Rabbit skeletal muscle actin (5% pyrene labeled) was incubated for 2 min at 25 °C with 200 μM EGTA and 50 μM MgCl2 to convert Ca-actin to Mg-actin. When included in the experiment, a 2:1 molar ratio of profilin was incubated with actin for 2 min at 25 °C before conversion to Mg-actin. Polymerization was initiated by adding polymerization buffer (KMEH, final concentration: 10 mM HEPES, pH 7.0, 1 mM EGTA, 50 mM KCl, 1 mM MgCl2). Prior to mixing KMEH with actin, formins and then the inhibitor in DMSO or DMF was added at ≤ 1% of the total volume. Finally, this mixture was rapidly mixed with Mg-actin, with approximately 10–20 s dead time prior to measurement. Fluorescence was monitored every 15 s using a TECAN F200 Pro with λex = 360 ± 17 nm and λem = 415 ± 10 nm. The same volume of organic solvent (DMSO or DMF) was added to each well regardless of inhibitor concentration.

[2] = molecular target: T1, DIAPH2 (Homo sapiens, UniProt O60879); assay: pyrene-actin polymerization assay, DIAPH2-FFC; type: biochemical
T1 construct: UniProt O60879-2, aa 553–1096; 6-histidine tag (N); made in house; host or cells: ROSETTA-DE3 E. coli
Experimental: as §1, §2, §3

[3] = molecular target: T2, INF2 (Homo sapiens, UniProt Q27J81); assay: pyrene-actin polymerization assay, INF2-FFC; type: biochemical
T2 construct: UniProt Q27J81-1, aa 469–1249; 6-histidine tag (N); made in house; host or cells: ROSETTA-DE3 E. coli
Experimental: as §1, §2, §3

[4] = molecular target: T3, FMNL3 (Homo sapiens, UniProt Q8IVF7); assay: pyrene-actin polymerization assay, FMNL3-FFC; type: biochemical
T3 construct: UniProt Q8IVF7-1, aa 481-1028; 6-histidine tag (N); made in house; host or cells: ROSETTA-DE3 E. coli
Experimental: as §1, §2, §3

[5] = molecular target: T4, FMN2 (Homo sapiens, UniProt Q9NZ56); assay: pyrene-actin polymerization assay, FMN2-FFC; type: biochemical
T4 construct: UniProt Q9NZ56-1, aa 1192-1722; 6-histidine tag (N); made in house; host or cells: ROSETTA-DE3 E. coli
Experimental: as §1, §2, §3

[6] = tested on: human formins; assay: pyrene-actin polymerization assay, panel of human formin FFC fragments; type: biochemical; conditions: for inhibitory activity against formins tested (in words): five formin FFC fragments (DIAPH1, DIAPH2, INF2, FMNL3, FMN2); for fold change in potency (IC50) compared with SMIFH2 (1): depending on the formin
Experimental: Figure 3 SMIFH2 has broad activity across the human formins. For each titration, pyrene fluorescence was monitored for 2 μM actin (5% pyrene-labeled)/ 4 μM S. pombe profilin. […] Increasing concentration of SMIFH2 is indicated by blue traces, with the µM concentration labeled to the right of each plot. The volume of DMSO added was the same for all traces, regardless of SMIFH2 concentration.
To characterize the specificity of SMIFH2, we titrated the inhibitor against each purified formin, controlling for the volume of DMSO for all polymerization reactions (Fig. 3, as indicated by blue traces).
as §1, §3

[7] = tested on: mouse Dia1; parameters: method as in PMID 19942139; conditions: reported value; cited from earlier work
[8] = tested on: Drosophila myosin 5; parameters: method as in PMID 33589498; conditions: read-out: IC50 actin-induced ATPase activity of Drosophila myosin 5; cited from earlier work
[9] = tested on: formin; parameters: method as in PMID 33589498; conditions: read-out: IC50 formin/mediated actin interactions; cited from earlier work
[10] = solubility in DMSO; type: physicochemical; conditions: had to be dissolved in DMF for assays

T2 sequence (Q27J81 469-1249): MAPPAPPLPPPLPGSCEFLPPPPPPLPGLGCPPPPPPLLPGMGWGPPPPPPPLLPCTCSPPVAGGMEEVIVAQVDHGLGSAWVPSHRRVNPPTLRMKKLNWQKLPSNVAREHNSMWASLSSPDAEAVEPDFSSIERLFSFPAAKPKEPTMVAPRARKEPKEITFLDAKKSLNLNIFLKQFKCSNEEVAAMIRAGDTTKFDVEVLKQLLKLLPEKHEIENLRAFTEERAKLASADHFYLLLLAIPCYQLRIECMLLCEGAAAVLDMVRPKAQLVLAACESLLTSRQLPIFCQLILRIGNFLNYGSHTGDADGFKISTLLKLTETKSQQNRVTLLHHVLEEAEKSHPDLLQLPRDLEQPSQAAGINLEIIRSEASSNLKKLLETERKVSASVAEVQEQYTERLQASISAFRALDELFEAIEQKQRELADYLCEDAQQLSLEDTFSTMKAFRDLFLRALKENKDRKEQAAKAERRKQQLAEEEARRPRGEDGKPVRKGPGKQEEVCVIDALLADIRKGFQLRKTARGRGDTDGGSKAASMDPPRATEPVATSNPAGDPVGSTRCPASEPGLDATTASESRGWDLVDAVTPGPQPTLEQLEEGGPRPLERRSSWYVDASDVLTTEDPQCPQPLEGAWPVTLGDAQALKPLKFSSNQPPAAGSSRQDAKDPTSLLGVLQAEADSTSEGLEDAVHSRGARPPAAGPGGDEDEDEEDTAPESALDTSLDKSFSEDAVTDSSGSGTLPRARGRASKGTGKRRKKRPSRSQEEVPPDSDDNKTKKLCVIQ
Chain of DIAPH1 (O60610 769-1222 limits assumed): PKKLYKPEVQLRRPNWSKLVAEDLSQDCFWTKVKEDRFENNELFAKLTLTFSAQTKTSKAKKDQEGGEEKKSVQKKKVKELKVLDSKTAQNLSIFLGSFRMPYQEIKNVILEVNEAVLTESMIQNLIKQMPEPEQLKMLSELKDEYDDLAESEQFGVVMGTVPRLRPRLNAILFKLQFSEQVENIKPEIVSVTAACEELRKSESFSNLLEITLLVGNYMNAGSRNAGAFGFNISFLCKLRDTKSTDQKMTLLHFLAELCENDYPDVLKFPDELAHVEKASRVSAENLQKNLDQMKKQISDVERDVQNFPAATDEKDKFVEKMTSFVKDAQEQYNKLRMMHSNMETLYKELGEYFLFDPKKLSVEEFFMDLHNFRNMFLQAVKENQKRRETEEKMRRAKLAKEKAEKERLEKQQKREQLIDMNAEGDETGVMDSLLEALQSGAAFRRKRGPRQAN
T4 sequence (Q9NZ56 1192-1722): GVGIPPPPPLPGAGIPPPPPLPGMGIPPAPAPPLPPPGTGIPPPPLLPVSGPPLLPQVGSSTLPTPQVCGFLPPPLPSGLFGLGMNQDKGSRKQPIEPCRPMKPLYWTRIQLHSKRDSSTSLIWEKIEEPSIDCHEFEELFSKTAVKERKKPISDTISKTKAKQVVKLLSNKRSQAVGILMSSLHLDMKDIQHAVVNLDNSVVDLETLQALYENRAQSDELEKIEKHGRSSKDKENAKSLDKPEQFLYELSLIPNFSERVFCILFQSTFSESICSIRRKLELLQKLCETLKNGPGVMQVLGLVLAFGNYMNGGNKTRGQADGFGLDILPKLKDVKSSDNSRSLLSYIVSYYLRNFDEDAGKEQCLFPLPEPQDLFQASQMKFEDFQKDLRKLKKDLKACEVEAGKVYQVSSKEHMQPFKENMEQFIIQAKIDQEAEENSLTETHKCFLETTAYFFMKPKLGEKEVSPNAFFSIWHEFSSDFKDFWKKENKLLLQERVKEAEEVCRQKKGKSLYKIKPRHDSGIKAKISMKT
T1 sequence (O60879 553-1096 isoform O60879-2): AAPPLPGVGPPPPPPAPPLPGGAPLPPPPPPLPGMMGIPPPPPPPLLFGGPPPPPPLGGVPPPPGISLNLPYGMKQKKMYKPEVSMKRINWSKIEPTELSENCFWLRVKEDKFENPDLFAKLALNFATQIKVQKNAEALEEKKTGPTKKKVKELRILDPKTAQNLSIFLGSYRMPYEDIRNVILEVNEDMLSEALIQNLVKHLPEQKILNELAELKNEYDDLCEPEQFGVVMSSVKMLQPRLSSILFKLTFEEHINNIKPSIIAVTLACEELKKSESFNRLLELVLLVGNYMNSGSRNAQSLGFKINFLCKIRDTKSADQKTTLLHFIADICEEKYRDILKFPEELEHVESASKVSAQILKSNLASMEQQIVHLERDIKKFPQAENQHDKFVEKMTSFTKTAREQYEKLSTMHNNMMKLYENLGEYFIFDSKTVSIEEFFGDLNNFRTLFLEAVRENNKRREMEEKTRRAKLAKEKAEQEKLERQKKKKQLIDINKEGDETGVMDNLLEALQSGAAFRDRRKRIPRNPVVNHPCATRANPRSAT
T3 sequence (Q8IVF7 481-1028): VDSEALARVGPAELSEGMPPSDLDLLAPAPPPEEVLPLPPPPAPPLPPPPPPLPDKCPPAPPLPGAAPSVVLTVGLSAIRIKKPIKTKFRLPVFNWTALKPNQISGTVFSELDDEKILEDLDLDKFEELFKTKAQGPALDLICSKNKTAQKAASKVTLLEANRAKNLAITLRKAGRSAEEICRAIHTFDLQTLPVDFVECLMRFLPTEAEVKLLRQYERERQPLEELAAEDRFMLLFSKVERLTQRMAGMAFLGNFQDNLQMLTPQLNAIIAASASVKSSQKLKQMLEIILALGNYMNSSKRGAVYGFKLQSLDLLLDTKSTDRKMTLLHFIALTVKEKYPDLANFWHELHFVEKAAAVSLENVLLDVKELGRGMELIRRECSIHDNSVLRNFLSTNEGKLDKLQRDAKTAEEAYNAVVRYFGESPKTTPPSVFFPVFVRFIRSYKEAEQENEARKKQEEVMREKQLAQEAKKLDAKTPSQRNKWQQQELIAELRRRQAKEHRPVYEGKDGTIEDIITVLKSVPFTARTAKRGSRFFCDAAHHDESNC

| SMILES | IC50 [1] [µM] | IC50 [2] [µM] | IC50 [3] [µM] | IC50 [4] [µM] | IC50 [5] [µM] | inhibitory activity against formins tested (in words) [6] | IC50 [7] [µM] | IC50 [8] [µM] | IC50 [9] [µM] | fold change in potency (IC50) compared with SMIFH2 (1) [6] | solubility [10] |
| --- | --- | --- | --- | --- | --- | --- | --- | --- | --- | --- | --- |
| COc1ccc(N2C(=O)C(=Cc3ccco3)C(=O)NC2=S)cc1 [Compound 10] | 27 ± 12 | 12 ± 8 | 37 ± 16 | 17 ± 6 | 23 ± 4 | reduced activity |  |  |  |  |  |
| CCN1C(=O)C(=Cc2ccco2)C(=O)N(c2cccc(Br)c2)C1=S [Compound 3] | > 40 | > 40 | > 40 | 40 | > 40 |  |  |  |  |  |  |
| O=C1NC(=S)N(c2cccc(Br)c2)C(=O)C1=Cc1ccco1 [Compound 1, 1-(3-bromophenyl)-5-(furan-2-ylmethylene)-2-thioxodihydropyrimidine-4,6(1H,5H)-dione, reference compound] | 30 ± 10 | 6 ± 3 | 10 ± 5 | 21 ± 7 | 10 ± 3 |  | 15 | ~2 | 10 to 20 |  |  |
| O=C1NC(=O)N(c2cccc(Br)c2)C(=O)C1=Cc1ccco1 [Compound 5] | > 40 | > 40 | > 40 | > 40 | > 40 | complete loss of inhibitory activity |  |  |  |  |  |
| O=C1NC(=S)N(c2ccc(Br)cc2)C(=O)C1=Cc1ccc(Cl)o1 [Compound 14] | 14 ± 2 | 4 ± 1 | 8 ± 1 | 10 | 15 |  |  |  |  |  |  |
| COc1ccc(N2C(=O)C(=Cc3ccc(Cl)o3)C(=O)NC2=S)cc1 [Compound 12] | 4 ± 1 | 1 ± 0.2 | 2 ± 1 | 3 ± 2 | 5 ± 3 | most potent inhibitor |  |  |  | two–ninefold |  |
| COc1ccc(N2C(=O)C(=Cc3cc(Br)co3)C(=O)NC2=S)cc1 [Compound 13] |  | 3.3 ± 0.2 | 6 ± 2 | 4 ± 1 |  |  |  |  |  |  |  |
| CN1C(=O)C(=Cc2ccco2)C(=O)N(c2cccc(Br)c2)C1=S [Compound 2] | 13 ± 3 | 5 ± 5 | 5 ± 2 | 4 ± 1 | 14 ± 2 | well tolerated |  |  |  |  |  |
| Cc1ccc(C=C2C(=O)NC(=S)N(c3cccc(Br)c3)C2=O)o1 [Compound 17] | > 40 | > 40 | > 40 | > 40 | > 40 | abolished activity |  |  |  |  |  |
| O=C1C(=Cc2ccco2)C(=O)N(c2cccc(Br)c2)C(=S)N1c1ccccc1 [Compound 4] | 11 ± 7 | 2.3 ± 1.7 | 4 ± 1 | 4 ± 1 | 9 ± 1 | well tolerated |  |  |  | 3–fourfold more potent |  |
| O=C1NC(=S)N(c2cccc(Br)c2)C(=O)/C1=C/C=C/c1ccco1 [Compound 18] |  | 20 | > 40 |  |  | modest activity |  |  |  |  |  |
| O=C1NC(=S)N(c2ccccc2)C(=O)C1=Cc1ccco1 [Compound 9] | > 40 | 40 | 30 | > 40 |  | measurable but weak to minimal activity |  |  |  |  | low solubility; also recorded: poorly soluble in DMSO |
| O=C1NC(=S)N(c2cccc(Br)c2)C(=O)C1=Cc1cccs1 [Compound 7] | > 40 | > 40 | > 40 | > 40 |  | no detectable inhibitory effect |  |  |  |  |  |
| O=C1NC(=S)N(c2cccc(Br)c2)C(=O)C1=Cc1ccc(Cl)o1 [Compound 15] | 12 ± 6 | 4 ± 1 | 4 ± 1 | 7 ± 1 | 11 ± 4 | well tolerated |  |  |  |  |  |
| COc1ccc(N2C(=O)C(=Cc3ccc(Br)o3)C(=O)NC2=S)cc1 [Compound 11] | 8 ± 2 | 2 ± 1.4 | 3 ± 2 | 7 ± 1 | 10 ± 1 |  |  |  |  |  |  |
| O=C1NC(=S)N(c2cccc(Br)c2)C(=O)C1=Cc1ccc[nH]1 [Compound 6] | > 40 | > 40 | > 40 | > 40 | > 40 | no detectable inhibitory effect |  |  |  |  |  |
| O=C1NC(=S)N(c2ccc(Br)cc2)C(=O)C1=Cc1ccco1 [Compound 8] | 8 ± 3 | 3 ± 1 | 7 ± 2 | 6 ± 3 | 8 ± 4 | maintained or slightly enhanced inhibitory activity |  |  |  |  |  |
| O=C1NC(=S)N(c2cccc(Br)c2)C(=O)C1=Cc1ccc(Br)o1 [Compound 16] | 30 ± 10 | 9 ± 1 | 7 ± 3 | 14 ± 5 | 25 ± 5 | well tolerated |  |  |  |  |  |
